Results taken from US11065253B2, “Arylquinazolines” (Merck Patent GmbH, priority 2013, dated 2021).
Like-named read-outs stand apart in the source and are kept apart here.

Test system: phospho-serine 2056 DNA-PK in HCT116 cells
Assay: DNA-PK phosphorylation at serine 2056 (cellular), ELISA in bleomycin-treated HCT116 cells
Assay type: cell-based
Conditions: read-out: IC50 pDNA-PK
How it was run: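 Chemiluminescent ELISA read-out; phospho-specific signal normalised to total DNA-PKcs. Cells (HCT116) exposed 6 h to test compound plus 10 μM bleomycin to induce double-strand breaks; DMSO control served as blank.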

[1] = Homo sapiens, HCT-116, phospho-serine 2056 DNA-PK, bleomycin-treated HCT116 cells, class symbols A-D
[2] = Homo sapiens, HCT-116, 6 h, cellular, HCT116 cells, 10 μM bleomycin, six hours
[3] = Homo sapiens, HCT-116, cellular DNA-PK phosphorylation at serine 2056, HCT116 cells
[4] = Homo sapiens, HCT-116, phospho-serine 2056 DNA-PK, bleomycin-treated HCT116 cells
[5] = phospho-serine 2056 DNA-PK, bleomycin-treated HCT116 cells
[6] = cellular DNA-PK phosphorylation at serine 2056, HCT116 cells

OC(c1cccc(-c2ncnc3cc(N4CCOCC4)ccc23)c1)c1nccs1 (stereo not shown) [Example 150, [3-(7-Morpholin-4-ylquinazolin-4-yl)-phenyl]thiazol-2-yl-methanol]
IC50 [1]: 5 to 10 µM

CCn1cc(C(O)c2cc(-c3ncnc4cc(N5CCOCC5)ccc34)c(F)cc2Cl)cn1 (stereo not shown) [Example 202, [2-Chloro-4-fluoro-5-(7-morpholin-4-ylquinazolin-4-yl)-phenyl]-(1-ethyl-1H-pyrazol-4-yl)-methanol]
IC50 [1]: 0.5 to 5 µM

NC(=O)COc1ccc(C(O)c2cc(-c3ncnc4cc(N5CCOCC5)ccc34)c(F)cc2Cl)nn1 (stereo not shown) [Example 111, 2-(6-{[2-Chloro-4-fluoro-5-(7-morpholin-4-yl-quinazolin-4-yl)-phenyl]hydroxy-methyl}pyridazin-3-yloxy)acetamide]
IC50 [1]: 5 to 10 µM

OC(c1cnccn1)c1cc(-c2ncnc3cc(N4CCOCC4)ccc23)c(F)cc1Cl (stereo not shown) [Example 34, [2-Chloro-4-fluoro-5-(7-morpholin-4-yl-quinazolin-4-yl)phenyl]-pyrazin-2-ylmethanol]
IC50 [2]: 5 to 10 µM

OC(c1cccnc1)c1cc(-c2ncnc3cc(N4CCOCC4)ccc23)c(F)cc1F (stereo not shown) [Example 217, [2,4-Difluoro-5-(7-morpholin-4-yl-quinazolin-4-yl)-phenyl]pyridin-3-yl-methanol]
IC50 [1]: < 0.5 µM

NC(=O)Cn1nc(C(O)c2cc(-c3ncnc4cc(N5CCOCC5)ccc34)c(F)cc2Cl)ccc1=O (stereo not shown) [Example 98, 2-(3-{[2-Chloro-4-fluoro-5-(7-morpholin-4-ylquinazolin-4-yl)-phenyl]hydroxymethyl}-6-oxo-6H-pyridazin-1-yl)acetamide]
IC50 [2]: 10 to 30 µM

Cc1nc([C@H](O)c2cnc(F)c(-c3ncnc4cc(N5CCOCC5)ncc34)c2)sc1C [Example 204, (R)-(4,5-Dimethyl-thiazol-2-yl)-[6-fluoro-5-(7-morpholin-4-yl-pyrido[4,3-d}-pyrimidin-4-yl)-pyridin-3-yl]-methanol]
IC50 (phospho-serine 2056 DNA-PK, bleomycin-treated HCT116 cells, class symbols A-D): 10 to 30 µM

Cn1cnc2c(C(O)c3ccc(F)c(-c4ncnc5cc(N6CCOCC6)ccc45)c3)ncnc21 (stereo not shown) [Example 420, [4-Fluoro-3-(7-morpholin-4-yl-quinazolin-4-yl)-phenyl]-(9-methyl-9H-purin-6-yl)-methanol]
IC50 [3]: 5 to 10 µM

OC(c1ccc(F)c(-c2ncnc3cc(N4CCOCC4)ccc23)c1)c1nc(Cl)cnc1Cl (stereo not shown) [Example 35, (3,6-Dichloro-pyrazin-2-yl)-[4-fluoro-3-(7-morpholin-4-yl-quinazolin-4-yl)phenyl]-methanol]
IC50 [2]: < 0.5 µM

O=C1CCCN1c1nccnc1C(O)c1ccc(F)c(-c2ncnc3cc(N4CCOCC4)ccc23)c1 (stereo not shown) [Example 425, 1-(3-{[4-Fluoro-3-(7-morpholin-4-yl-quinazolin-4-yl)-phenyl]hydroxy-methyl}pyrazin-2-yl)-pyrrolidin-2-one]
IC50 [3]: 10 to 30 µM

Cn1ncc2c(C(O)c3cc(-c4ncnc5cc(N6CCOCC6)ccc45)ccc3F)ncnc21 (stereo not shown) [Example 391, [2-Fluoro-5-(7-morpholin-4-yl-quinazolin-4-yl)-phenyl]-(1-methyl-1H-pyrazolo[3,4-d}-pyrimidin-4-yl)-methanol]
IC50 [3]: 0.5 to 5 µM

OC(c1cc(-c2ncnc3cc(N4CCOCC4)ccc23)ccc1Cl)c1ncnn2cccc12 (stereo not shown) [Example 362, [2-Chloro-5-(7-morpholin-4-yl-quinazolin-4-yl)-phenyl]pyrrolo[2,1-f]-[1,2,4]triazin-4-yl-methanol]
IC50 [4]: 0.5 to 5 µM

OC(c1ccc(F)c(-c2ncnc3cc(N4CCOCC4)ccc23)c1)c1c(F)cncc1Cl (stereo not shown) [Example 77, (3-Chloro-5-fluoro-pyridin-4-yl)-[4-fluoro-3-(7-morpholin-4-yl-quinazolin-4-yl)phenyl]-methanol]
IC50 [2]: < 0.5 µM

O=c1ccc(C(O)c2cc(-c3ncnc4cc(N5CCOCC5)ccc34)c(F)cc2Cl)nn1C1CC1 (stereo not shown) [Example 95, 6-{[2-Chloro-4-fluoro-5-(7-morpholin-4-yl-quinazolin-4-yl)phenyl]-hydroxymethyl}-2-cyclopropyl-2H-pyridazin-3-one]
IC50 [2]: 0.5 to 5 µM

COc1ccc(C(O)c2cc(-c3ncnc4cc(N5CCOCC5)cc(F)c34)c(F)cc2Cl)nn1 (stereo not shown) [Example 271, [2-Chloro-4-fluoro-5-(5-fluoro-7-morpholin-4-yl-quinazolin-4-yl)-phenyl]-(6-methoxy-pyridazin-3-yl)-methanol (Ena 1)]
IC50 [5]: < 0.5 µM

OC(c1cccc(-c2ncnc3cc(N4CCOCC4)sc23)c1)c1nccs1 (stereo not shown) [Example 182, [3-(6-Morpholin-4-ylthieno[3,2-d}-pyrimidin-4-yl)-phenyl]thiazol-2-yl-methanol]
IC50 [1]: 5 to 10 µM

COc1cncnc1C(O)c1ccc(F)c(-c2ncnc3cc(N4CCOCC4)ccc23)c1 (stereo not shown) [Example 87, [4-Fluoro-3-(7-morpholin-4-yl-quinazolin-4-yl)-phenyl]-(5-methoxy-pyrimidin-4-yl)-methanol]
IC50 [2]: < 0.5 µM

[2H]C1([2H])OC([2H])([2H])C([2H])([2H])N(c2ccc3c(-c4cc(C(O)c5ccc(OC)nn5)c(Cl)cc4F)ncnc3c2)C1([2H])[2H] (stereo not shown) [Example 239, [2-Chloro-4-fluoro-5-[7-(2,2,3,3,5,5,6,6-octadeuterio-morpholin-4-yl)quinazolin-4-yl]phenyl]-(6-methoxypyridazin-3-yl)methanol]
IC50 [5]: 10 to 30 µM

OC(c1cc(-c2ncnc3cc(N4CCOCC4)ccc23)ccc1Cl)c1ncnc2sccc12 (stereo not shown) [Example 430, [2-Chloro-5-(7-morpholin-4-yl-quinazolin-4-yl)-phenyl]thieno[2,3-d}-pyrimidin-4-yl-methanol]
IC50 [3]: < 0.5 µM

OC(c1ccc(F)c(-c2ncnc3cc(N4CCOCC4)ccc23)c1)c1nncc2ccsc12 (stereo not shown) [Example 332, [4-Fluoro-3-(7-morpholin-4-yl-quinazolin-4-yl)-phenyl]thieno[2,3-d}-pyridazin-7-yl-]
IC50 [4]: < 0.5 µM

CC(O)(c1cncc(-c2ncnc3cc(N4CCOCC4)ccc23)c1)c1nccs1 (stereo not shown) [Example 152, 1-[5-(7-Morpholin-4-ylquinazolin-4-yl)-pyridin-3-yl]-1-thiazol-2-ylethanol]
IC50 [1]: 10 to 30 µM

Cn1nc(C(O)c2ccc(F)c(-c3ncnc4cc(N5CCOCC5)ccc34)c2)ccc1=O (stereo not shown) [Example 326, 6-{[4-Fluoro-3-(7-morpholin-4-yl-quinazolin-4-yl)-phenyl]hydroxy-methyl}-2-methyl-2H-pyridazin-3-one]
IC50 [4]: 0.5 to 5 µM

COc1nccnc1C(O)c1cc(-c2ncnc3cc(N4CCOCC4)ccc23)c(F)cc1F (stereo not shown) [Example 453]
IC50 [3]: < 0.5 µM

OC(c1cc(-c2ncnc3cc(N4CCOCC4)ccc23)c(F)cc1Cl)c1ncnc2ccoc12 (stereo not shown) [Example 441, [2-Chloro-4-fluoro-5-(7-morpholin-4-yl-quinazolin-4-yl)-phenyl]furo[3,2-d}-pyrimidin-4-yl-methanol]
IC50 [6]: < 0.5 µM

OCCOc1ccc(C(O)c2cc(-c3ncnc4cc(N5CCOCC5)ccc34)c(F)cc2Cl)nn1 (stereo not shown) [Example 116, 2-(6-{[2-Chloro-4-fluoro-5-(7-morpholin-4-yl-quinazolin-4-yl)-phenyl]hydroxy-methyl}pyridazin-3-yl-oxy)ethanol]
IC50 [1]: 0.5 to 5 µM

COC(c1ccc(F)c(-c2ncnc3cc(N4CCOCC4)ccc23)c1)c1nccnc1C (stereo not shown) [Example 353, 4-{2-Fluoro-5-[methoxy-(3-methyl-pyrazin-2-yl)methyl]-phenyl}-7-morpholin-4-ylquinazoline (Ena 2)]
IC50 [4]: 10 to 30 µM

O=c1[nH]nc(C(O)c2ccc(F)c(-c3ncnc4cc(N5CCOCC5)ccc34)c2)c2ccsc12 (stereo not shown) [Example 338, 4-[[4-Fluoro-3-(7-morpholino-quinazolin-4-yl)-phenyl]hydroxy-methyl]-6H-thieno[2,3-d}-pyridazin-7-one]
IC50 [4]: 0.5 to 5 µM

COc1ccc(C(C(N)=O)c2cc(-c3ncnc4cc(N5CCOCC5)ccc34)c(F)cc2Cl)nn1 (stereo not shown) [Example 325, 2-[2-Chloro-4-fluoro-5-(7-morpholin-4-yl-quinazolin-4-yl)-phenyl]-2-(6-methoxypyridazin-3-yl)acetamide]
IC50 [5]: 10 to 30 µM

Cc1cncnc1C(O)c1cc(-c2ncnc3cc(N4CCOCC4)ccc23)ccc1F (stereo not shown) [Example 392, [2-Fluoro-5-(7-morpholin-4-yl-quinazolin-4-yl)-phenyl]-(5-methyl-pyrimidin-4-yl)-methanol]
IC50 [3]: 0.5 to 5 µM

OC(c1nccs1)c1cc(-c2ncnc3cc(N4CCOCC4)ccc23)ccc1F (stereo not shown) [Example 170, [2-Fluoro-5-(7-morpholin-4-yl-quinazolin-4-yl)-phenyl]thiazol-2-yl-methanol]
IC50 [1]: 5 to 10 µM

OCc1csc(C(O)c2cc(-c3ncnc4cc(N5CCOCC5)ccc34)c(F)cc2Cl)n1 (stereo not shown) [Example 142, [2-Chloro-4-fluoro-5-(7-morpholin-4-yl-quinazolin-4-yl)-phenyl]-(4-hydroxymethyl-thiazol-2-yl)-methanol]
IC50 [1]: 0.5 to 5 µM

OC(c1cc(-c2ncnc3cc(N4CCOCC4)ccc23)c(F)cc1F)c1nncc2sccc12 (stereo not shown) [Example 341, [2,4-Difluoro-5-(7-morpholin-4-yl-quinazolin-4-yl)-phenyl]thieno[2,3-d}-pyridazin-4-yl-methanol]
IC50 [4]: < 0.5 µM

O[C@@H](c1ccc(F)c(-c2ncnc3cc(N4CCOCC4)ccc23)c1)c1nccnc1Cl [Example 28, (S)-(3-Chloro-pyrazin-2-yl)-[4-fluoro-3-(7-morpholin-4-yl-quinazolin-4-yl)phenyl]-methanol]
IC50 [2]: 5 to 10 µM

OC(c1ccc(F)c(-c2ncnc3cc(N4CCOCC4)ccc23)c1)c1nccnc1OC(F)F (stereo not shown) [Example 464, (3-Difluoromethoxy-pyrazin-2-yl)-[4-fluoro-3-(7-morpholin-4-yl-quinazolin-4-yl)-phenyl]methanol]
IC50 [6]: 0.5 to 5 µM
